Assay results taken from publication PMC7618597, “Dual Nurr1/RXR agonism of valerenic acid and synthetic mimetics enables dimer-selective Nurr1 modulation” (ACS medicinal chemistry letters, 2025).
pEC50, pKd: −log10 of the molar value.

How the values were obtained:
RXRα = target: T1, RXRα (Homo sapiens, UniProt P19793); assay: Gal4-hybrid reporter gene assay, RXRα; assay type: cell-based; details: Gal4-hybrid reporter gene assay; for pEC50: mean±S.E.M., n≥3
T1 construct: pFA-CMV-hRXRα-LBD; expressed in transfected cells; host or cells: HEK293T
T1 sequence (P19793 227-458 limits assumed): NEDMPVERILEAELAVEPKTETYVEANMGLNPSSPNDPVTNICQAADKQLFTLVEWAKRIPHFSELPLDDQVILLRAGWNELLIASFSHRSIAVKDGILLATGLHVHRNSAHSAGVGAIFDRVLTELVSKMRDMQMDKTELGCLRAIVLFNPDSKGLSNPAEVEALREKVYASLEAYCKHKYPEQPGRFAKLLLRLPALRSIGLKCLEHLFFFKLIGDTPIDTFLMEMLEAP
Protocol: (§1) modified Eagle’s medium (DMEM), high glucose supplemented with 10% fetal calf serum (FCS), sodium pyruvate (1 mM), penicillin (100 U/mL), and streptomycin (100 μg/mL) at 37 °C and 5% CO2 and seeded in 96-well plates (3×10^4 cells/well). After 24 h, the medium was changed to Opti-MEM without supplements, and the cells were transiently transfected using Lipofectamine LTX reagent (Invitrogen) according to the manufacturer’s protocol. Five hours after transfection, the cells were incubated with the test compounds in Opti-MEM supplemented with penicillin (100 U/mL), streptomycin (100 μg/mL), and 0.1% DMSO for 15 h before luciferase activity was measured using the Dual -Glo Luciferase Assay System (Promega) according to the manufacturer’s protocol on a Tecan Spark l uminometer (Tecan Deutschland GmbH, Germany). Firefly luminescence was divided by Renilla luminescence and multiplied by 1000, resulting in relative light units (RLU) to normalize for transfection efficiency and cell growth. Fold activation was obtained by dividing the mean RLU of a sample by the mean RLU of the untreated control. All samples were tested in at least three biologically independent experiments in duplicates. For dose –response curve fitting and calculation of EC50 values, the equation “[Agonist] vs. response – Variable slope (four parameters)” was used in GraphPad Prism (version 5.04, GraphPad Software, La Jolla, CA, USA). […] (10 μM, NR4A) and bexarotene (1 µM, NR2B) served as the positive control. […]
(§2) 150 μM in the same buffer containing 2-4% DMSO) in 21–26 injections (1 × 1 μL and 20 × 4 to 25 × 4 μL) with an injection interval of 120 s. As control experiments, the test compounds were titrated to the buffer, and the buffer was titrated to the protein under otherwise identical conditions. The heat rates of the compound-Nurr1 LBD titrations were analyzed using NanoAnalyze software (TA Instruments, New Castle, DE) with an independent binding model.

RXRβ = target: T2, RXRβ (Homo sapiens, UniProt P28702); assay: Gal4-hybrid reporter gene assay, RXRβ; assay type: cell-based; details: Gal4-hybrid reporter gene assay; for pEC50: mean±S.E.M., n≥3
T2 construct: CMV-hRXRβ-LBD; expressed in transfected cells; host or cells: HEK293T
T2 sequence (P28702 296-529 limits assumed): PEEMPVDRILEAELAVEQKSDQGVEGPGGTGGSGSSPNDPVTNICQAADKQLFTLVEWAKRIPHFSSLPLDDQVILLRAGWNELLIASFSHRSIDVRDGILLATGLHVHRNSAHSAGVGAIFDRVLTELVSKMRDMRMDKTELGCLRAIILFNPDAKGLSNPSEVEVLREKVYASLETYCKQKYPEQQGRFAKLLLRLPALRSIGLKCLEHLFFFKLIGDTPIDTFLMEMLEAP
Protocol: as §1, §2

RXRγ = target: T3, RXRγ (Homo sapiens, UniProt P48443); assay: Gal4-hybrid reporter gene assay, RXRγ; assay type: cell-based; details: Gal4-hybrid reporter gene assay; for pEC50: mean±S.E.M., n≥3
T3 construct: pFA-CMV-hRXRγ-LBD; expressed in transfected cells; host or cells: HEK293T
T3 sequence (P48443 231-459 limits assumed): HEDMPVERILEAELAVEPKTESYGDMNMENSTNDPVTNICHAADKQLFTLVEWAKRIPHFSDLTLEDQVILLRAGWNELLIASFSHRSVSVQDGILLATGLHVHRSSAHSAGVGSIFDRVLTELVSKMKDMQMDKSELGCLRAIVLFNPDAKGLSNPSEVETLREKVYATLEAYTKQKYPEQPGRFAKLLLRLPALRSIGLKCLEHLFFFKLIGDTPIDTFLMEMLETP
Protocol: as §1, §2

RXRα LBD = target: T4, RXRα LBD (Homo sapiens, UniProt P19793); assay: Isothermal titration calorimetry, recombinant RXRα LBD; assay type: binding; details: ITC
T4 construct: made in house
T4 sequence (P19793 227-458 limits assumed): T1 sequence (P19793 227-458 limits assumed)
Protocol: Isothermal titration calorimetry. ITC experiments for ligand binding to Nurr1 and RXR were conducted on an Affinity ITC instrument (TA Instruments, New Castle, DE) at 25 °C with a stirring rate of 75 rpm using recombinantly expressed ligand binding domain proteins as described previously5,6. The respective LBD protein (12–25 μM) in buffer (20 mM Tris pH 7.5, 100 mM NaCl, 5% glycerol) containing 2-4% DMSO was titrated with the test compounds (100-150 μM in the same buffer containing 2-4% DMSO) in 21–26 injections (1 × 1 μL and 20 × 4 to 25 × 4 μL) with an injection interval of 120 s. As control experiments, the test compounds were titrated to the buffer, and the buffer was titrated to the protein under otherwise identical conditions. The heat rates of the compound-Nurr1 LBD titrations were analyzed using NanoAnalyze software (TA Instruments, New Castle, DE) with an independent binding model.

Structure (SMILES) | max. act. (RXR) α (RXRα) [fold] | pEC50 (RXRα) | max. act. (RXR) β (RXRβ) [fold] | pEC50 (RXRβ) | max. act. (RXR) γ (RXRγ) [fold] | pEC50 (RXRγ) | pKd (RXRα LBD)
Cc1c2c(n(-c3ccc(CC(=O)O)cc3)c1C)CCC(F)(F)C2 [compound 2] | 69±1 | 6.01 | 121±6 | 5.35 | 44±1 | 5.47 | 5.96
Cc1c(C)n(-c2ccc(CC(=O)O)cc2)c2ccc(F)cc12 [compound 3] | 83±9 | 6.40 | 103±6 | 6.22 | 67±4 | 5.77 | 6.70
